Earlier results on 2 molecules are cited in US20040005368A1, “Novel approach to weight loss comprising a modified protein composition that regulates blood sugar in conjunction with compositions that increase oxygen uptake and suppress appetite” (priority 2002, published 2004).

For the series the following is noted: group of animals.

Consider `Cn1c(=O)c2c(ncn2C)n(C)c1=O` [caffeine], for which the “loss in body weight” value was “no significant loss in body weight”.

Consider `CN[C@@H](C)[C@H](O)c1ccccc1` [ephedrine], for which the “loss in body fat” value is on record as 42% and the “loss in body weight” value is recorded as 14%.
